The text below walks through data of PMC6905088 (Biochemical pharmacology, 2019).

Several values for one entry are separate records, joined by “and”; a condition that tells them apart may be missing. Equal entries are not always repeated. Entries after “also recorded” stand apart in the source; their conditions may differ. Where two headings read alike, the source gives them in different places.

For one data set, the target named is CYP2E1 (Homo sapiens, UniProt P05181). In words: Recombinant isozyme kinetic experiments, CYP2E1. Type of data set: in vitro ADME.
A further data set has as its system CYP2C9 and 3A4. Nature of the data set: In vitro to in vivo scaling of P450 kinetics, CYP2C9 and 3A4 combined. To be noted: scaled to average protein concentrations in human liver microsomes. A general note: Liver microsomes are vesicles of endoplasmic reticulum, rich in cytochrome P450 enzymes.
In a further data set the test system is CYP3A4. Particulars: substrate terbinafine, ref Davis et al. (2019); cited from earlier work.
The target in another data set is T1, CYP2B6 (Homo sapiens, UniProt P20813).
T1 sequence (P20813 1-491): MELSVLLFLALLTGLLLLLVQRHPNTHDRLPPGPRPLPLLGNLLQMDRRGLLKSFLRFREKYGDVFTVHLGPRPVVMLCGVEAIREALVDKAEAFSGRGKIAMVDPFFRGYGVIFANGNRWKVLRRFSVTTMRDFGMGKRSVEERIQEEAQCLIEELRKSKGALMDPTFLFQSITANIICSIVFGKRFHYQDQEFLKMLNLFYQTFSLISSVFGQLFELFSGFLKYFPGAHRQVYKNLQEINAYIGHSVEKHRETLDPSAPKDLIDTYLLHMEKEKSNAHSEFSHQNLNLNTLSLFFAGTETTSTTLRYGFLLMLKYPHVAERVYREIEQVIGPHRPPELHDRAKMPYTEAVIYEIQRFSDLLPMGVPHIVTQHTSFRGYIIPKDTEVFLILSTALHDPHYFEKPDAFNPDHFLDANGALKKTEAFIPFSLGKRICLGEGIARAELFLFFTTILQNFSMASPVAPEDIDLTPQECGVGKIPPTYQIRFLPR
Nature of the data set: Recombinant isozyme kinetic assay.

The next data set addresses CYP2C9 (Homo sapiens, UniProt P11712). In words: Recombinant isozyme kinetic assay. To be noted: CYP2C9; substrate terbinafine.
The target of a further data set is CYP2D6 (Homo sapiens, UniProt P10635). In words: Recombinant isozyme kinetic assay. To be noted: Pathway 1 Step 1, substrate terbinafine.
For data set [1] the following is noted: ref Terbianfine Product Monograph, Canada, 1995; cited from earlier work.
The target in the next data set is T2, CYP2C8 (Homo sapiens, UniProt P10632).
T2 sequence (P10632 1-490): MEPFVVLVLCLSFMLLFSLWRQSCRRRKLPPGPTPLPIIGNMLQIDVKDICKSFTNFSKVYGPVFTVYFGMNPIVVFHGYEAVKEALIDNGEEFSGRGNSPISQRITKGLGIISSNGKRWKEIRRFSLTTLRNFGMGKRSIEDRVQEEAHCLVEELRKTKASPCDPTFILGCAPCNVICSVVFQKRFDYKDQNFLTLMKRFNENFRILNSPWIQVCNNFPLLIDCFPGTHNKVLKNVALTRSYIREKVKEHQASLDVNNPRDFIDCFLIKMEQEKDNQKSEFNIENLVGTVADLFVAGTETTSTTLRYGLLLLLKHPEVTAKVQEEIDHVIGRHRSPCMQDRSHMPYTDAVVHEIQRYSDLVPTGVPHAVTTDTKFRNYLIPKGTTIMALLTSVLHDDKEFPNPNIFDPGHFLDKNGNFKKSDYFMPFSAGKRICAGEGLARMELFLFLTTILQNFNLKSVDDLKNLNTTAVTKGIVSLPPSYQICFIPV
In words: Recombinant isozyme kinetic assay. To be noted: substrate terbinafine.

The next data set concerns CYP2C19. To be noted: substrate terbinafine, ref Davis et al. (2019); cited from earlier work.
Another data set has as its target T3, CYP2A6 (Homo sapiens, UniProt P11509).
T3 sequence (P11509 1-494): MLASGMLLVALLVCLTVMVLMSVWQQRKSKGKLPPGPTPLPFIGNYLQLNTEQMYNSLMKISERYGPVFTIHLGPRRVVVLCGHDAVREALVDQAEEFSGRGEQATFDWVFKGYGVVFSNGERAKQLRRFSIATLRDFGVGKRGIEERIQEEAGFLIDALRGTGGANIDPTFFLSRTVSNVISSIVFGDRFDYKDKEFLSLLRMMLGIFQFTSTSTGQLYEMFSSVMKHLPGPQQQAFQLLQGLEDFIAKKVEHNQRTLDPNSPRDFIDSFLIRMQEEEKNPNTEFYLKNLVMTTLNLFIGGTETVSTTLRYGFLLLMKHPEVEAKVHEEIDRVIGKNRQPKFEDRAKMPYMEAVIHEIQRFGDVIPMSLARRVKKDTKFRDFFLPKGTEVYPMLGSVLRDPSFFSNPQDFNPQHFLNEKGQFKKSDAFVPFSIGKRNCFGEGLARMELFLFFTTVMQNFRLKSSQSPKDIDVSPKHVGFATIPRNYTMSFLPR
In words: Recombinant isozyme kinetic assay. Type of data set: in vitro ADME.

The conditions of data set [2]: ref Vago et al., 1994, Kovarik et al., 1995; cited from earlier work.
Substrate in data set [3]: CN(C/C=C/C#CC(C)(C)C)Cc1cccc2ccccc12
Nature of the data set: cells, lysate or membranes named. To be noted: substrate terbinafine, pH 7.4, 37.0 °C.

Substrate in data set [4]: CN(C/C=C/C#CC(C)(C)C)Cc1cccc2ccccc12
The mark [5] stands for this setting: other: CYP1A2, Pathway 1 Step 1.
Where [6] appears, read: other: CYP1A2, Pathway 2 Step 2.1.
The mark [7] stands for this setting: other: CYP2C9, Pathway 2 Step 2.1.
Where [8] appears, read: other: CYP2C8, Pathway 2 Step 2.1.

Chain of CYP2E1 (P05181 whole entry): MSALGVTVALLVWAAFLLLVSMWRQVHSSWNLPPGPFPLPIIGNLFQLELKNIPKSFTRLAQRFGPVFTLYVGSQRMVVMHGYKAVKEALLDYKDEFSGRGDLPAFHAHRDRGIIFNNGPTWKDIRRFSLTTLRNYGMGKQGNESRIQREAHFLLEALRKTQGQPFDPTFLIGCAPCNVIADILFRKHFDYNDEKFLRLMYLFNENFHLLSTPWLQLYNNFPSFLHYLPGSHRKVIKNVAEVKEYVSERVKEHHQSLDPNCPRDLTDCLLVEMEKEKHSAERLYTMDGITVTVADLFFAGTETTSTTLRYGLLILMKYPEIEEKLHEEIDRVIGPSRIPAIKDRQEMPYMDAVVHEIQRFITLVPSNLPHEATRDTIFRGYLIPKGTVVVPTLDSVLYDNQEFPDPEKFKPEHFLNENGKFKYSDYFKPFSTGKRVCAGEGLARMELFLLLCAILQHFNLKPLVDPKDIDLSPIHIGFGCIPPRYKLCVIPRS

On to `CN(C/C=C/C#CC(C)(C)C)Cc1cccc2ccccc12` [terbinafine], for which, on CYP2E1, the “role in terbinafine metabolism” value is listed as “no role”. Further, the “combined contribution of CYP2C9 and 3A4 to every metabolic step” value in the data set on CYP2C9 and 3A4 was “over 60%”. Moreover, the results for the “Hill slope (n), hydroxyterbinafine formation” value with CYP3A4 and in the data set on CYP2C19 were 1.30 ± 0.16 and 1.40 ± 0.11, respectively. The “Hill slope (n), terbinafine dihydrodiol formation” value is reported as 2.0 ± 0.32 in the data set with CYP3A4 and 0.58 ± 0.08 with CYP2C19. Also, the “TBF-A formation (steady-state kinetic constants)” value is recorded as “undetected” at CYP2B6 (Pathway 1 Step 1, substrate terbinafine) and “undetected” at CYP2D6. Moreover, the Km (usually the concentration of substrate that gives half-maximal velocity) at 30 min on CYP2B6 (human, recombinant CYP2B6 Supersomes, pH 7.4, Km or S50, hydroxyterbinafine formation, substrate terbinafine) was determined as 300 ± 100 µM. Further, the “hydroxyterbinafine formation (kinetic constants)” value on CYP2C9 and on CYP2C8 was “undetected” in each case. Further, the “risk of idiosyncratic liver toxicity, one in N patients” value in data set [1] is given as 45,000–54,000. For the same molecule, the “terbinafine dihydrodiol formation (kinetic constants)” value at CYP2C8 is “undetected”. Besides, the “metabolite formation / role in terbinafine metabolism” value at CYP2A6 is recorded as “not able to generate metabolites; also recorded: no role”. The “reported plasma terbinafine and metabolite levels” value in data set [2] is no more than 3 µM.

B1: CYP1A2 (Homo sapiens) (protein)
chain: MALSQSVPFSATELLLASAIFCLVFWVLKGLRPRVPKGLKSPPEPWGWPLLGHVLTLGKNPHLALSRMSQRYGDVLQIRIGSTPVLVLSRLDTIRQALVRQGDDFKGRPDLYTSTLITDGQSLTFSTDSGPVWAARRRLAQNALNTFSIASDPASSSSCYLEEHVSKEAKALISRLQELMAGPGHFDPYNQVVVSVANVIGAMCFGQHFPESSDEMLSLVKNTHEFVETASSGNPLDFFPILRYLPNPALQRFKAFNQRFLWFLQKTVQEHYQDFDKNSVRDITGALFKHSKKGPRASGNLIPQEKIVNLVNDIFGAGFDTVTTAISWSLMYLVTKPEIQRKIQKELDTVIGRERRPRLSDRPQLPYLEAFILETFRHSSFLPFTIPHSTTRDTTLNGFYIPKKCCVFVNQWQVNHDPELWEDPSEFRPERFLTADGTAINKPLSEKMMLFGMGKRRCIGEVLAKWEIFLFLAILLQQLEFSVPPGVKVDLTPIYGLTMKHARCEHVQARLRFSIN
As to B1, the Km in data set [3] (setting [5]) is 75 ± 42 µM and 31 ± 17 µM; in [3] (setting [6]), 120 ± 23 µM. Also, the kcat is 100 ± 12 pmol/min/nmol protein in data set [3] (setting [5]) and 530 ± 38 pmol/min/nmol protein in [3] (setting [6]). Also, the K0.5 in [3] (other: CYP1A2, Hill equation) was found to be 130 ± 87 µM; in data set [3] (other: CYP1A2) it was 45 ± 5.7 µM.

B2: CYP2C9 (Homo sapiens) (protein)
chain: MDSLVVLVLCLSCLLLLSLWRQSSGRGKLPPGPTPLPVIGNILQIGIKDISKSLTNLSKVYGPVFTLYFGLKPIVVLHGYEAVKEALIDLGEEFSGRGIFPLAERANRGFGIVFSNGKKWKEIRRFSLMTLRNFGMGKRSIEDRVQEEARCLVEELRKTKASPCDPTFILGCAPCNVICSIIFHKRFDYKDQQFLNLMEKLNENIKILSSPWIQICNNFSPIIDYFPGTHNKLLKNVAFMKSYILEKVKEHQESMDMNNPQDFIDCFLMKMEKEKHNQPSEFTIESLENTAVDLFGAGTETTSTTLRYALLLLLKHPEVTAKVQEEIERVIGRNRSPCMQDRSHMPYTDAVVHEVQRYIDLLPTSLPHAVTCDIKFRNYLIPKGTTILISLTSVLHDNKEFPNPEMFDPHHFLDEGGNFKKSKYFMPFSAGKRICVGEALAGMELFLFLTSILQNFNLKSLVDPKNLDTTPVVNGFASVPPFYQLCFIPV
In the case of B2, the kcat in [3] (other: CYP2C9, Pathway 1 Step 1) came to 800 ± 170 pmol/min/nmol protein. For the same molecule, in data set [3] (setting [7]), the Km came to 20 ± 5.1 µM and the kcat is 400 ± 19 pmol/min/nmol protein. Further, the K0.5 in [3] (other: CYP2C9, Hill equation) worked out at 72 ± 92 µM.

B3: CYP2C8 (Homo sapiens) (protein)
chain: T2 sequence (P10632 1-490)
Consider B3, for which, in data set [3] (setting [8]), the Km is 72 ± 12 µM and the kcat stood at 260 ± 12 pmol/min/nmol protein.

B4: CYP2D6 (Homo sapiens) (protein)
chain: MGLEALVPLAVIVAIFLLLVDLMHRRQRWAARYPPGPLPLPGLGNLLHVDFQNTPYCFDQLRRRFGDVFSLQLAWTPVVVLNGLAAVREALVTHGEDTADRPPVPITQILGFGPRSQGVFLARYGPAWREQRRFSVSTLRNLGLGKKSLEQWVTEEAACLCAAFANHSGRPFRPNGLLDKAVSNVIASLTCGRRFEYDDPRFLRLLDLAQEGLKEESGFLREVLNAVPVLLHIPALAGKVLRFQKAFLTQLDELLTEHRMTWDPAQPPRDLTEAFLAEMEKAKGNPESSFNDENLRIVVADLFSAGMVTTSTTLAWGLLLMILHPDVQRRVQQEIDDVIGQVRRPEMGDQAHMPYTTAVIHEVQRFGDIVPLGVTHMTSRDIEVQGFRIPKGTTLITNLSSVLKDEAVWEKPFRFHPEHFLDAQGHFVKPEAFLPFSAGRRACLGEPLARMELFLFFTSLLQHFSFSVPTGQPRPSHHGVFAFLVSPSPYELCAVPR
B4: the K0.5 in data set [4] was 16 ± 3.2 µM and 25 ± 4.1 µM.
